Reference: ChEMBL document CHEMBL4610119, “Lipophilic Triphosphate Prodrugs of Various Nucleoside Analogues” (J Med Chem, 2020)

Assays:
[1] = test system: Human immunodeficiency virus 1; assay: microbe, parasite or virus in culture; type: functional, organism-based; details: Human immunodeficiency virus 1, 3B, CCRF-CEM
Description: Antiviral activity against HIV1 3B infected in human CEM/0 cells assessed as inhibition of viral-induced giant cell formation incubated for 4 to 5 days by microscopy

[2] = Cytotoxicity in human CEM/0 cells assessed as reduction in cell viability incubated for 4 to 5 days
[3] = Stability in aqueous 25 mM PBS at pH 7.3 assessed as hydrolysis half life by HPLC analysis; type: physicochemical
[4] = Stability in human CEM/0 cell extracts assessed as hydrolysis half life by HPLC analysis; type: ADME, CCRF-CEM
[5] = test system: pig liver esterase; assay: Stability in pH 7.3 PBS assessed as pig liver esterase mediated hydrolysis by measuring half life by HPLC analysis; type: ADME, Sus scrofa

Compound | EC50 [1] | CC50 ([2]; CEM/0 cells) | half-life [3] | half-life [4] | half-life [5] | CC50 ([2]; ccrf-cem)
Cc1cn([C@@H]2C[C@H](CO)[C@@H](O)C2)c(=O)[nH]c1=O | 36 µM | > 250 µM |  |  |  | 
CCCCCCCCCCCCCCCCOC(=O)Oc1ccc(COP(=O)(OCc2ccc(OC(=O)CCCC)cc2)OP(=O)(O)OP(=O)(O)OC[C@H]2O[C@@H](n3cc(/C=C/Br)c(=O)[nH]c3=O)C[C@@H]2O)cc1.N.N (some centres not stated) | 1.49 µM | 43 µM | 62 h | 1.31 h | 7 h | 
CCCCCCCCCCCCCCCCOC(=O)Oc1ccc(COP(=O)(OCc2ccc(OC(=O)CC)cc2)OP(=O)(O)OP(=O)(O)OC[C@H]2C[C@@H](n3cc(C)c(=O)[nH]c3=O)C[C@@H]2O)cc1.N.N (some centres not stated) | 0.52 µM | 36 µM | 74 h |  |  | 
CCCCCCCCCCCCCCCCOC(=O)Oc1ccc(COP(=O)(OCc2ccc(OC(=O)CC)cc2)OP(=O)(O)OP(=O)(O)OC[C@@H]2C=C[C@H](n3cc(C)c(=O)[nH]c3=O)O2)cc1 (some centres not stated) | 0.027 µM |  |  |  |  | 
CCCCCCCCCCCCCCCCOC(=O)Oc1ccc(COP(=O)(OCc2ccc(OC(=O)CC)cc2)OP(=O)(O)OP(=O)(O)OC[C@H]2O[C@@H](n3cc(C)c(=O)[nH]c3=O)C[C@@H]2O)cc1.N.N (some centres not stated) | 10.8 µM | 14 µM | 76 h |  |  | 
CCCCCCCCCCCCCCCCOC(=O)Oc1ccc(COP(=O)(OCc2ccc(OC(=O)CCCC)cc2)OP(=O)(O)OP(=O)(O)OC[C@H]2O[C@@H](n3cc(Cl)c(=O)[nH]c3=O)C[C@@H]2F)cc1.N.N (some centres not stated) | 2.59 µM | 42 µM | 66 h |  |  | 
CCCCCCCCCCCCCCCCOC(=O)Oc1ccc(COP(=O)(OCc2ccc(OC(=O)CC)cc2)OP(=O)(O)OP(=O)(O)OC[C@@H]2O[C@H](n3cc(F)c(N)nc3=O)CS2)cc1.N.N (some centres not stated) | 0.026 µM | 35 µM | 45 h | 1.49 h | 2.6 h | 
CCCCCCCCCCCCCCCCOC(=O)Oc1ccc(COP(=O)(OCc2ccc(OC(=O)CCCC)cc2)OP(=O)(O)OP(=O)(O)OC[C@H]2O[C@@H](n3cc(C)c(=O)[nH]c3=O)C[C@@H]2N=[N+]=[N-])cc1.N.N (some centres not stated) | 0.0037 µM | 42 µM | 84 h | 5 h | 4 h | 
CCCCCCCCCCCCCCCCOC(=O)Oc1ccc(COP(=O)(OCc2ccc(OC(=O)CC)cc2)OP(=O)(O)OP(=O)(O)OC[C@H]2O[C@@H](n3cc(Cl)c(=O)[nH]c3=O)C[C@H]2N=[N+]=[N-])cc1.N.N (some centres not stated) | > 45 µM | 45 µM | 67 h | 2.52 h | 3 h | 
CCCCCCCCCCCCCCCCOC(=O)Oc1ccc(COP(=O)(OCc2ccc(OC(=O)CCCC)cc2)OP(=O)(O)OP(=O)(O)OC[C@@H]2O[C@H](n3cc(F)c(N)nc3=O)CS2)cc1.N.N (some centres not stated) | 0.0043 µM | 40.5 µM | 36 h | 2.78 h | 2.26 h | 
CCCCCCCCCCCCCCCCOC(=O)Oc1ccc(COP(=O)(OCc2ccc(OC(=O)CC)cc2)OP(=O)(O)OP(=O)(O)OC[C@H]2O[C@@H](n3cc(/C=C/Br)c(=O)[nH]c3=O)C[C@@H]2O)cc1.N.N (some centres not stated) | 11.2 µM | 43 µM | 56 h |  |  | 
CCCCCCCCCCCCCCCCOC(=O)Oc1ccc(COP(=O)(OCc2ccc(OC(=O)CC)cc2)OP(=O)(O)OP(=O)(O)OC[C@H]2O[C@@H](n3cc(C)c(=O)[nH]c3=O)C[C@@H]2N=[N+]=[N-])cc1.N.N (some centres not stated) | 0.0094 µM | 48 µM | 83 h |  |  | 
CCCCCCCCCCCCCCCCOC(=O)Oc1ccc(COP(=O)(O)OP(=O)(O)OP(=O)(O)OC[C@H]2O[C@@H](n3cc(Cl)c(=O)[nH]c3=O)C[C@@H]2F)cc1 | 2.5 µM | 54 µM |  |  |  | 
[N-]=[N+]=N[C@@H]1C[C@H](n2cc(Cl)c(=O)[nH]c2=O)O[C@@H]1CO | > 100 µM | > 100 µM |  |  |  | 
CCCCCCCCCCCCCCCCOC(=O)Oc1ccc(COP(=O)(OCc2ccc(OC(=O)CC)cc2)OP(=O)(O)OP(=O)(O)OC[C@H]2O[C@@H](n3cc(Cl)c(=O)[nH]c3=O)C[C@@H]2F)cc1.N.N (some centres not stated) | 1.28 µM | 42 µM | 56 h | 1.64 h |  | 
CCCCCCCCCCCCCCCCOC(=O)Oc1ccc(COP(=O)(OCc2ccc(OC(=O)CCCC)cc2)OP(=O)(O)OP(=O)(O)OC[C@@H]2CC[C@H](n3cnc4c(=O)[nH]cnc43)O2)cc1.N.N (some centres not stated) | 0.93 µM | 43 µM | 41 h | 1.57 h | 3.5 h | 
CCCCCCCCCCCCCCCCOC(=O)Oc1ccc(COP(=O)(OCc2ccc(OC(=O)CCCC)cc2)OP(=O)(O)OP(=O)(O)OC[C@@H]2C=C[C@H](n3cc(C)c(=O)[nH]c3=O)O2)cc1 (some centres not stated) | 0.032 µM |  |  |  |  | 
CCCCCCCCCCCCCCCCOC(=O)Oc1ccc(COP(=O)(OCc2ccc(OC(=O)CC)cc2)OP(=O)(O)OP(=O)(O)OC[C@H]2O[C@@H](n3ccc(=O)[nH]c3=O)C[C@H]2N=[N+]=[N-])cc1.N.N (some centres not stated) | > 44 µM | 44 µM | 68 h | 1.54 h |  | 
[N-]=[N+]=N[C@@H]1C[C@H](n2ccc(=O)[nH]c2=O)O[C@@H]1CO | > 250 µM | > 250 µM |  |  |  | 
O=c1[nH]c(=O)n([C@H]2C[C@H](O)[C@@H](CO)O2)cc1/C=C/Br [BRIVUDINE] | > 250 µM | 207 µM |  |  |  | 
O=c1[nH]cnc2c1ncn2[C@H]1CC[C@@H](CO)O1 [DIDANOSINE] | 16 µM | > 250 µM |  |  |  | 
Cc1cn([C@H]2C[C@H](O)[C@@H](CO)O2)c(=O)[nH]c1=O [DOXRIBTIMINE] | 4.11 µM | 10.6 µM |  |  |  | 
Nc1nc(=O)n([C@@H]2CS[C@H](CO)O2)cc1F [EMTRICITABINE] | 0.01 µM |  |  |  |  | > 100 µM
O=c1[nH]c(=O)n([C@H]2C[C@H](F)[C@@H](CO)O2)cc1Cl [RALURIDINE] | > 250 µM | 188 µM |  |  |  | 
Cc1cn([C@H]2C=C[C@@H](CO)O2)c(=O)[nH]c1=O [STAVUDINE] | 0.43 µM |  |  |  |  | > 50 µM
Cc1cn([C@H]2C[C@H](N=[N+]=[N-])[C@@H](CO)O2)c(=O)[nH]c1=O [ZIDOVUDINE] | 0.005 µM | > 100 µM |  |  |  | 
